Some test systems named below: A498 renal; SR leukemia; CCRF-CEM leukemia; SK-OV-3 ovarian; SF-268 CNS; CAKI-1 renal; SK-MEL-5 melanoma; RXF 393 renal; SW-620 colon; MDA-MB-231 breast.
Experiment in all cases: DTP human tumour cell line panel, 48 h

Experimental findings from PubChem BioAssay (NCI) are described below.

One may read the TGI as the concentration at which net growth stops. A low value points to greater sensitivity of the cells. The GI50 is the concentration at which growth is held to half of that of the control.

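1) Cells in 96-well plates. 2) Compound, 48 h, 5 concentrations. 3) Linear interpolation between surrounding doses. 4) Unreached endpoint = highest concentration. The concentration for 50% growth inhibition is given as GI50. TGI: concentration producing complete growth inhibition.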

On to `COC(=O)C(Cc1nc2ccc(Cl)cc2[nH]c1=O)/C(=N\N)C(=O)Nc1cc(C)c(Cl)cc1S(=O)(=O)O` (stereo not drawn), for which the TGI in the assay on A498 renal, with SR leukemia, in the assay with CCRF-CEM leukemia, in the assay on SK-OV-3 ovarian, in the assay with SF-268 CNS and in the assay on CAKI-1 renal was > 100 µM each time. The concentration for total growth inhibition (TGI) with SK-MEL-5 melanoma is > 100 µM.

On to `O=C1/C(=C/c2ccc(Cl)cc2)CCC1CCN1CCOCC1` (stereo not drawn), for which the TGI in the assay on A498 renal, in the assay on SR leukemia, in the assay on CCRF-CEM leukemia, with SF-268 CNS, in the assay on CAKI-1 renal and in the assay with RXF 393 renal was > 100 µM in each case. The TGI in the assay with SK-MEL-5 melanoma and in the assay on SW-620 colon was > 100 µM each time.

For `Cc1ccc(NC(=O)CCc2cc(C(C)(C)C)nc(=S)[nH]2)cc1C`, the TGI with A498 renal, in the assay with SR leukemia, with CCRF-CEM leukemia, in the assay on SK-OV-3 ovarian, in the assay on SF-268 CNS and in the assay on CAKI-1 renal was > 100 µM in each case. For the same compound, the TGI in the assay on RXF 393 renal, in the assay on SK-MEL-5 melanoma and in the assay on SW-620 colon was > 100 µM in each case.

Take `CCC(C)COC(=O)c1ccc(N=Cc2ccc(C=Nc3ccc(C(=O)OCC(C)CC)cc3)cc2)cc1` (stereo not drawn): the TGI in the assay on A498 renal, in the assay with SR leukemia, in the assay on CCRF-CEM leukemia, in the assay with SK-OV-3 ovarian, in the assay on SF-268 CNS and with CAKI-1 renal was > 100 µM throughout. For the same compound, the TGI in the assay with RXF 393 renal, in the assay with SK-MEL-5 melanoma and with SW-620 colon was > 100 µM throughout.

For `CCCC(=O)Nc1cc2c3c(c1)CCCN3CCC2`, the TGI in the assay with SR leukemia, with CCRF-CEM leukemia, with SK-OV-3 ovarian, in the assay with SF-268 CNS, in the assay with CAKI-1 renal and in the assay with MDA-MB-231 breast was > 10 µM in each case. Besides, the TGI in the assay on SK-MEL-5 melanoma and in the assay with SW-620 colon was > 10 µM in each case.

With `CCOc1ccccc1NC(=O)C(=O)CC(=O)c1sc(Nc2nnc(-c3ccc(Cl)c(Cl)c3)o2)nc1C`, the TGI with A498 renal, with SR leukemia, in the assay with CCRF-CEM leukemia, in the assay with SK-OV-3 ovarian, in the assay on SF-268 CNS and in the assay on CAKI-1 renal was > 100 µM in each case. In addition, the TGI in the assay on RXF 393 renal, in the assay on SK-MEL-5 melanoma and in the assay with SW-620 colon was > 100 µM throughout.

Regarding `CCN1CCC(O)(c2ccc(OC)cc2)C(C(=O)c2ccc(OC)cc2)C1` (stereo not drawn), the TGI with SR leukemia is 67.1 µM; with SK-OV-3 ovarian, > 100 µM; in the assay with SF-268 CNS, 41.8 µM; in the assay on CAKI-1 renal it was 31.3 µM; with SK-MEL-5 melanoma, 29 µM; in the assay on SW-620 colon, 25.9 µM.

In the case of `COc1ccc(Nc2nnc(-c3cc(O)ccc3O)s2)cc1`, the GI50 was > 50 µM with A498 renal; 1.41 µM with SR leukemia; 16.3 µM in the assay on SF-268 CNS; 34.2 µM in the assay on CAKI-1 renal; 30.6 µM with RXF 393 renal; 9.65 µM in the assay with MDA-MB-231 breast. Moreover, the figures for the GI50 in the assay on SK-MEL-5 melanoma and with SW-620 colon were 10.3 µM and 11.3 µM, respectively. Besides, the TGI with A498 renal is > 50 µM; in the assay on SR leukemia, 34.2 µM; in the assay on SF-268 CNS, > 50 µM; in the assay on CAKI-1 renal it was > 50 µM; in the assay with RXF 393 renal, > 50 µM; with MDA-MB-231 breast, 31.1 µM. The TGI with SK-MEL-5 melanoma was 27.2 µM; in the assay with SW-620 colon it was 22.8 µM.

In the case of `O=C1/C(=C/c2cccc(Cl)c2Cl)N=C(c2ccccc2)N1C1CC1`, the GI50 in the assay on SR leukemia is 21.5 µM; in the assay with SF-268 CNS, 10.3 µM; in the assay on CAKI-1 renal it was 14.8 µM; with RXF 393 renal, 23.9 µM; with MDA-MB-231 breast, 8.05 µM; in the assay on SK-MEL-5 melanoma, 11.4 µM. In addition, the GI50 with SW-620 colon is 26.7 µM. The TGI in the assay with SR leukemia was > 50 µM; in the assay on SF-268 CNS it was 22.3 µM; in the assay on CAKI-1 renal it was 39.5 µM; with RXF 393 renal, > 50 µM; in the assay on MDA-MB-231 breast, 18.3 µM; in the assay on SK-MEL-5 melanoma, 24.7 µM. The TGI with SW-620 colon is > 50 µM.

As to `COc1ccc(NC(=O)/C(Cc2cc(=O)oc3cc(O)ccc23)=N\NC(C)(C)C)c(OC)c1`, the TGI with A498 renal, with SR leukemia, in the assay on CCRF-CEM leukemia, with SK-OV-3 ovarian, in the assay on SF-268 CNS and with CAKI-1 renal was > 100 µM in each case. Besides, the TGI in the assay on SK-MEL-5 melanoma and with SW-620 colon was > 100 µM throughout.

As to `C#C[C@]1(O)CCC2C3CCc4cc(O)ccc4C3CC[C@@]21C` (stereo partly drawn), the GI50 with A498 renal was 4.62 µM; in the assay with SR leukemia it was 1.24 µM; in the assay with SK-OV-3 ovarian, 3.45 µM; in the assay on SF-268 CNS, 5.23 µM; in the assay on CAKI-1 renal, 9.15 µM; in the assay with RXF 393 renal, 4.66 µM. The values for the GI50 with MDA-MB-231 breast, in the assay on SK-MEL-5 melanoma and with SW-620 colon were 7.58 µM, 2.24 µM and 3.8 µM, respectively. Besides, the TGI with A498 renal came out at 18.3 µM; in the assay with SR leukemia, 87.4 µM; with SK-OV-3 ovarian it was 49.6 µM; with SF-268 CNS, 32.7 µM; in the assay on CAKI-1 renal, 87 µM; with RXF 393 renal, 17.7 µM. Besides, the TGI in the assay on MDA-MB-231 breast worked out at 47.2 µM; in the assay on SK-MEL-5 melanoma it was 7.6 µM; in the assay with SW-620 colon it was 23.6 µM.

As to `CC(=O)c1sc(Nc2nnc(-c3ccc(-c4nnc(Nc5nc(C)c(C(C)=O)s5)o4)cc3)o2)nc1C`, the TGI with A498 renal is > 100 µM; with SR leukemia, > 100 µM; in the assay on CCRF-CEM leukemia, > 100 µM; in the assay on SK-OV-3 ovarian, > 10 µM; with SF-268 CNS it was > 100 µM; in the assay on CAKI-1 renal, > 10 µM. Besides, the TGI in the assay with RXF 393 renal and with SW-620 colon was > 100 µM each time.

For the compound `C=C(C)[C@@H]1CC[C@]2(C)[C@H](CC=C3[C@@H]4CC(C)(C)CC[C@]4(C(N)=O)CC[C@]32C)[C@@]1(C)CCC#N`, the GI50 was 2.16 µM in the assay with A498 renal; 3.02 µM with CCRF-CEM leukemia; 4.62 µM in the assay with SK-OV-3 ovarian; 5.28 µM in the assay on SF-268 CNS; 3.01 µM with CAKI-1 renal; 2.34 µM in the assay on RXF 393 renal. Also, the GI50 in the assay with MDA-MB-231 breast is 3.96 µM; in the assay with SK-MEL-5 melanoma, 1.83 µM; in the assay with SW-620 colon, 3.21 µM. Besides, the TGI is 5.32 µM in the assay with A498 renal; > 100 µM in the assay on CCRF-CEM leukemia; > 100 µM with SK-OV-3 ovarian; > 100 µM with SF-268 CNS; > 100 µM in the assay with CAKI-1 renal; 5.11 µM with RXF 393 renal. The TGI with MDA-MB-231 breast is > 100 µM; in the assay on SK-MEL-5 melanoma it was 3.31 µM; with SW-620 colon it was 30.1 µM.
